Experimental data as given in patent US7452887B2, “Quinoline- and isoquinoline-based compounds exhibiting ATP-utilizing enzyme inhibitory activity, and compositions, and uses thereof” (Amphora Discovery Corporation, priority 2004, dated 2008).

Experiments:
Assay in all cases: HTS ATP-utilizing enzyme assay, off-chip mobility-shift (Caliper HTS 250)
Details in all cases: test compound 10 μM, kinase listed = active (greater than six-sigma from the mean activity of inactive compounds)
CK2 = type: biochemical, human
Source text: The following procedures describe the reagent and plate preparation for a HTS of an ATP-utilizing enzyme, such as a protein kinase, run in an off-chip mobility-shift assay format. The following provides an HTS protocol for running a protein kinase HTS screen on a Caliper HTS 250 microfluidics system. The following parameters are dependent on the protein kinase used and can be determined by one skilled in the art as part of a typical assay development process. For example, the peptide substrate used can be identified from the current literature, by screening a peptide library of potential protein kinase substrates, or by other applicable means accepted in the field.
The following table provides typical screen assay parameters appropriate for a Caliper HTS 250 microfluidics system.
The reagents and buffers listed in the following table are generally applicable for developing and running an HTS screen on a human protein kinase using the Caliper HTS 250 system.
The following reagents were prepared using the previously described buffers.
A 2× Master Buffer solution was prepared by combining 200 mL of 1 M HEPES, pH 7.5, 2 mL of 10% Triton X-100, 20 mL of 10% BSA, and 778 mL of H2O.
A 2.5× Substrate Buffer solution was prepared by combining 177.408 mL of 2× Master Buffer, 0.887 mL of 1 mM peptide-X, and 176.521 mL of H2O.
A 1.55× Termination Buffer solution was prepared by combining 762.05 mL of 2× Master Buffer, 95.1 mL of 0.5 M EDTA, and 666.94 mL of H2O. […]
Assays to determine the kinase inhibitory activity of compounds of the present disclosure were performed using a Caliper HTS 250 microfluidics device, Greiner U-bottom assay plates, a Multidrop for transfer of reagents, and Biomek FX (AMNCBM03) software. […] The inhibition of the ATP-utilizing enzyme, such as a particular protein kinase, was determined by measuring the ratio of the peptide substrate to phosphorylated product for each well of the assay plate using the Caliper HTS 250 system. […]

MAPKAPK2 = MAPKAPK2 (Homo sapiens, UniProt P49137); type: biochemical
Summary of the method: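 Phosphorylation of a peptide substrate was quantified by Caliper mobility-shift separation of substrate and product after 2.5 h at 20-22 °C, with compounds tested at 10 μM. Inhibition was normalized to EDTA-quenched (100%) and DMSO (0%) controls; six-sigma thresholds flagged actives.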

PRAK = biological target: T1, PRAK (Homo sapiens, UniProt Q8IW41); type: biochemical
T1 sequence (Q8IW41 1-473): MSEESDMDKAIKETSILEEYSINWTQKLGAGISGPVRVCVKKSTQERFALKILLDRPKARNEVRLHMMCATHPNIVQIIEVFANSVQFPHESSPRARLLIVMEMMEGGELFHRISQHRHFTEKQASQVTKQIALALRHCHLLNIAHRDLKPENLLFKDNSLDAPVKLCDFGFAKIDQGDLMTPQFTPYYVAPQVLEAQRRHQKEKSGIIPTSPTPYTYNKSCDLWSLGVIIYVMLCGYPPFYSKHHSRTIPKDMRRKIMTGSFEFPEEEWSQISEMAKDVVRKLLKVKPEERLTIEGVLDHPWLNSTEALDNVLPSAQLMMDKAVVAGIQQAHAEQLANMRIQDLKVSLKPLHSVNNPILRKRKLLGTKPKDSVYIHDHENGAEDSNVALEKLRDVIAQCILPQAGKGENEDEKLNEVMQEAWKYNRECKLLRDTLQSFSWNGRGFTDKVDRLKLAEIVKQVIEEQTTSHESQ
Summary of the method: (§1)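 Inhibition is reported from a single 10 μM concentration. Kinase phosphorylates a peptide substrate over 2.5 hrs at 20° C. to 22° C. before EDTA termination. Potential hits are those beyond six-sigma statistical limits.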

KIT = KIT (Homo sapiens, UniProt P10721); type: biochemical
Summary of the method: as §1

CDK1/cyclin B = CDK1/cyclin B (Homo sapiens, UniProt P06493); type: biochemical
Summary of the method: as §1

ROCK2 = ROCK2 (Homo sapiens, UniProt O75116); type: biochemical
Summary of the method: as §1

DYRK2 = biological target: T2, DYRK2 (Homo sapiens, UniProt Q92630); type: biochemical
T2 sequence (Q92630 1-601): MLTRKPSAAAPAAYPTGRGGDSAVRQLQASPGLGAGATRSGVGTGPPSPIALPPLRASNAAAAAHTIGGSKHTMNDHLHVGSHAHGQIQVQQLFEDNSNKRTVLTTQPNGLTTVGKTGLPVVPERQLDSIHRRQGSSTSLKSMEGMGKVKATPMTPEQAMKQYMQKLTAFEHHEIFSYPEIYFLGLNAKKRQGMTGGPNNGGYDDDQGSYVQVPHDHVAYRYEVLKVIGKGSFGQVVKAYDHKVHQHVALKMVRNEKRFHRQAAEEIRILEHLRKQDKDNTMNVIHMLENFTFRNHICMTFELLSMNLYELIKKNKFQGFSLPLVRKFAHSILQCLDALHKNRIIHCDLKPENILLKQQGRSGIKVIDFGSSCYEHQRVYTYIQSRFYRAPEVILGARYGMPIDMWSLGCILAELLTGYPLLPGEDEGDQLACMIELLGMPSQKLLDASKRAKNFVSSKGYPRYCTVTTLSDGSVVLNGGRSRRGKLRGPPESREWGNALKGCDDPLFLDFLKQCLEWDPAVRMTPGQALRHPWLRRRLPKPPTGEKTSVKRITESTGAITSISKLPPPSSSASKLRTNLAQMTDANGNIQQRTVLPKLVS
Summary of the method: as §1

NEK2 = biological target: T3, NEK2 (Homo sapiens, UniProt P51955); type: biochemical
T3 sequence (P51955 1-445): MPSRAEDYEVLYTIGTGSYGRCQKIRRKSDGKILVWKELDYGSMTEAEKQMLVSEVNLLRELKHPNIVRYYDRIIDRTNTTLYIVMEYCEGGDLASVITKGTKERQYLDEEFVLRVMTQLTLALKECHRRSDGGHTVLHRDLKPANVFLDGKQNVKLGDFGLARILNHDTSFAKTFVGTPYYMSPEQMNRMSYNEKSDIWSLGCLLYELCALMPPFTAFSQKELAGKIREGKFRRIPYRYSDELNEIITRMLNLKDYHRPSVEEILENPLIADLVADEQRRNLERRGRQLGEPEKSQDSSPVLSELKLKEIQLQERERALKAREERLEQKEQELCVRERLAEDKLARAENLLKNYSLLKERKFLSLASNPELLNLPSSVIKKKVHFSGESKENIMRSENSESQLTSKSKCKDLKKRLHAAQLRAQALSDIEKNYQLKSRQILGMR
Summary of the method: as §1

CHEK2 = CHEK2 (Homo sapiens, UniProt O96017); type: biochemical
Summary of the method: as §1

C-TAK1 = C-TAK1 (Homo sapiens, UniProt P27448); type: biochemical
Summary of the method: as §1

CDK2/cyclin A = CDK2/cyclin A (Homo sapiens, UniProt P24941); type: biochemical
Summary of the method: as §1

MSK1 = MSK1 (Homo sapiens, UniProt O75582); type: biochemical
Summary of the method: as §1

SYK = SYK (Homo sapiens, UniProt P43405); type: biochemical
Summary of the method: as §1

SRC = SRC (Homo sapiens, UniProt P12931); type: biochemical
Summary of the method: as §1

GSK3-α = GSK3-α (Homo sapiens, UniProt P49840); type: biochemical
Summary of the method: as §1

GSK-3-β = GSK-3-β (Homo sapiens, UniProt P49841); type: biochemical
Summary of the method: as §1

Sequence of C-TAK1 (P27448 whole entry): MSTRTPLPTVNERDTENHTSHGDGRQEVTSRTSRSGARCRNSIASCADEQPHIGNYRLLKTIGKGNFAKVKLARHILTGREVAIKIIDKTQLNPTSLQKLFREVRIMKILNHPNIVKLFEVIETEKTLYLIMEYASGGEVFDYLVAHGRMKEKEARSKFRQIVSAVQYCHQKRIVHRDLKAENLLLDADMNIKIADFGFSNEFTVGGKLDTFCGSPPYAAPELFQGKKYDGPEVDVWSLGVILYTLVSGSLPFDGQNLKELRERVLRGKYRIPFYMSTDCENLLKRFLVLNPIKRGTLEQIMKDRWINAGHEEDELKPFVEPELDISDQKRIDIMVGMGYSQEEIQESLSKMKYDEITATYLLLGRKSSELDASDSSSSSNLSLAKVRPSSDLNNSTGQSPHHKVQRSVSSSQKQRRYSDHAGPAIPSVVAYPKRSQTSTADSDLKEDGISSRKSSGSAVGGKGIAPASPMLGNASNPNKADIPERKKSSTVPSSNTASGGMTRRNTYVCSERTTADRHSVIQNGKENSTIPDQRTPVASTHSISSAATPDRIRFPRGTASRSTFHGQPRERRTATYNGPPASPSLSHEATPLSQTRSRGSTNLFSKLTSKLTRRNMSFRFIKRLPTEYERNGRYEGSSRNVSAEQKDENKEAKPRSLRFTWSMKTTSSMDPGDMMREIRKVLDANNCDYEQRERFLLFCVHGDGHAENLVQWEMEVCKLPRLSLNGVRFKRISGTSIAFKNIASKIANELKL
Sequence of MAPKAPK2 (P49137 whole entry): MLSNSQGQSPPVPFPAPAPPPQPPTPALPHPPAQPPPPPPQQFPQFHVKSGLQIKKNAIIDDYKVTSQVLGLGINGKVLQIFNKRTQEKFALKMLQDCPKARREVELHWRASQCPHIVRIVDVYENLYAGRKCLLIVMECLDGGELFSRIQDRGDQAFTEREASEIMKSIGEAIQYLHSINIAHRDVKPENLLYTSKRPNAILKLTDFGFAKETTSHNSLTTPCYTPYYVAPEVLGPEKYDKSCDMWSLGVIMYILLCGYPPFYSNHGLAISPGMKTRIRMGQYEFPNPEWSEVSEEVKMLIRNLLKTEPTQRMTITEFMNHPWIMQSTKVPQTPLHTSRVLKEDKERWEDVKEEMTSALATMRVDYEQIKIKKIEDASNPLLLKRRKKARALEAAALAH
Sequence of CHEK2 (O96017 whole entry): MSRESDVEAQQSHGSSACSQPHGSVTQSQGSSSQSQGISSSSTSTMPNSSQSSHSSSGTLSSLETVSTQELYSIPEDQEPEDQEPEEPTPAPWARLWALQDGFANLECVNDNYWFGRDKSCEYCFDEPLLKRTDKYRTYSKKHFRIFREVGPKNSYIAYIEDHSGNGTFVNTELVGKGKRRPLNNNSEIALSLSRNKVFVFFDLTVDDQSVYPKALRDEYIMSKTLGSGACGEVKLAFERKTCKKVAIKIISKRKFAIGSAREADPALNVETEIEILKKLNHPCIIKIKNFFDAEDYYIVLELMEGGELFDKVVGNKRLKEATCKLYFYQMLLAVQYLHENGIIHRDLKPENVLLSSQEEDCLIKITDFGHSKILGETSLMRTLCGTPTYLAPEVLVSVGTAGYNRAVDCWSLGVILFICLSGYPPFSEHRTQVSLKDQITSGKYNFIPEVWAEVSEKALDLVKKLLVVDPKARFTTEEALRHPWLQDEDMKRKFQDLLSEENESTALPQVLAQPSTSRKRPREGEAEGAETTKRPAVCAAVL
Sequence of GSK3-α (P49840 whole entry): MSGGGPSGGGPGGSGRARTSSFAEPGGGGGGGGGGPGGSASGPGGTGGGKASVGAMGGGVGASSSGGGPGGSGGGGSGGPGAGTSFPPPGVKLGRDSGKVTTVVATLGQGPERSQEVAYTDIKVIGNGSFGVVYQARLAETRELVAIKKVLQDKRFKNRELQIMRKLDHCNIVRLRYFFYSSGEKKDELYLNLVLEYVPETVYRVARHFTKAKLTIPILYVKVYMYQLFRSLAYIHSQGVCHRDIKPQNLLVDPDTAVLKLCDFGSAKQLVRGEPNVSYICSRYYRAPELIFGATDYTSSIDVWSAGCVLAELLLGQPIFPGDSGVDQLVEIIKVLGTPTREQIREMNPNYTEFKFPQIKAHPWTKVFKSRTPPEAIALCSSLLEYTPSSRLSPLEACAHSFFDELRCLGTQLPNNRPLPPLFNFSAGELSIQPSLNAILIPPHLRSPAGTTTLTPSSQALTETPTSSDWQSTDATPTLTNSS
Sequence of MSK1 (O75582 whole entry): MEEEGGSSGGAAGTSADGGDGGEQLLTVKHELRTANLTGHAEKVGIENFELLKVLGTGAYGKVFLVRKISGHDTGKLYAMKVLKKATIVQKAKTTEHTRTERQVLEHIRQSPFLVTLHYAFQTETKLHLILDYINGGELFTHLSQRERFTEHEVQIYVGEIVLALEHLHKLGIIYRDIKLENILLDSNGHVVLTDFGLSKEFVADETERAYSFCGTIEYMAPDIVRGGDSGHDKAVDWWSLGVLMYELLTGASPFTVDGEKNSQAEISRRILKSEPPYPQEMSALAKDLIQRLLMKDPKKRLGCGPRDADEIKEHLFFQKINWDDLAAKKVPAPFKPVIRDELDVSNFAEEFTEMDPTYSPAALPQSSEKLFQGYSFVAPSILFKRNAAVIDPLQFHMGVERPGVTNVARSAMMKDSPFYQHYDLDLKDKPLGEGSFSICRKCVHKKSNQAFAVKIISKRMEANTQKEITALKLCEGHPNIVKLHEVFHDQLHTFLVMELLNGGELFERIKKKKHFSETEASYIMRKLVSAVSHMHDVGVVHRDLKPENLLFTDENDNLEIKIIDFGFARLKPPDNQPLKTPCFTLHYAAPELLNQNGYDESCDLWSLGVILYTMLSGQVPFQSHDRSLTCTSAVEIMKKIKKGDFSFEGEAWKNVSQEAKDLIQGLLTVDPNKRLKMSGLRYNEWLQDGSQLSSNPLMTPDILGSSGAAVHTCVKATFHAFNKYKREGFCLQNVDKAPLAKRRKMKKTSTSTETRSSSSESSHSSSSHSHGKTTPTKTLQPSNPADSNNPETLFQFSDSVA
Sequence of KIT (P10721 26-976): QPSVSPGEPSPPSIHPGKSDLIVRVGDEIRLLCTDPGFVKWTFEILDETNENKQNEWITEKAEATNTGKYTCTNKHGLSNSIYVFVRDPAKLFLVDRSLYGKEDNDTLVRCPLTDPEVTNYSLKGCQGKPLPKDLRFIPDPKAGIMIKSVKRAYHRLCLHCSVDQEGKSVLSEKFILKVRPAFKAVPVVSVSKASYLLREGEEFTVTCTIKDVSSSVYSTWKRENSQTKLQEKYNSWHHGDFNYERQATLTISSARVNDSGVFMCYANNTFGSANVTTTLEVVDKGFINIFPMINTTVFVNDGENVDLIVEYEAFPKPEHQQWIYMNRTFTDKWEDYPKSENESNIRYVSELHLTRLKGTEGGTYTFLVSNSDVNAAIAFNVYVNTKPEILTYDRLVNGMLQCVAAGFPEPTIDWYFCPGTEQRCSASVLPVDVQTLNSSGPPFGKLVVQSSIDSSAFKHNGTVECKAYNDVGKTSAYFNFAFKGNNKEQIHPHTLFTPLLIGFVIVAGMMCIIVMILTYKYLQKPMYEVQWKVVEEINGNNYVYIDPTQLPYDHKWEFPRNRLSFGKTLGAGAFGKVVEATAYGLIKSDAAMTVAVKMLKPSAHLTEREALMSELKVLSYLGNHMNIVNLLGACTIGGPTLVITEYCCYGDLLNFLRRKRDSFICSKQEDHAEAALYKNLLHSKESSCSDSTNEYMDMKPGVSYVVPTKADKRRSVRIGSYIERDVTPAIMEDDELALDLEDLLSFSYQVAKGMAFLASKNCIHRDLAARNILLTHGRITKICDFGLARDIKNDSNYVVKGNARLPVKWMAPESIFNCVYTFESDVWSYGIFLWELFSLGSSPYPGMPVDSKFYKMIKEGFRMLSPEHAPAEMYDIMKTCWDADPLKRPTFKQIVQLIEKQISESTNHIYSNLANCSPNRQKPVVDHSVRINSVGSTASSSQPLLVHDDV
Sequence of GSK-3-β (P49841 whole entry): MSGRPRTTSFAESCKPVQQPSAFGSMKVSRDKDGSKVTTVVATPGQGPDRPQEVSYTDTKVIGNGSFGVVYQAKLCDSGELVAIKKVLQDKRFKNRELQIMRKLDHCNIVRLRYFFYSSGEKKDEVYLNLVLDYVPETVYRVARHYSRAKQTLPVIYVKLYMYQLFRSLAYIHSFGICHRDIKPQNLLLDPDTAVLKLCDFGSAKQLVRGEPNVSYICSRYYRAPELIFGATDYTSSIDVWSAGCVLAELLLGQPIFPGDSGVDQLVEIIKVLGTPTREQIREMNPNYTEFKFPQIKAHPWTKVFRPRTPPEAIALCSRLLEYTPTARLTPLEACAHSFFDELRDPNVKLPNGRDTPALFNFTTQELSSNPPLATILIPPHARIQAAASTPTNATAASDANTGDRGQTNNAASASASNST
Sequence of SRC (P12931 whole entry): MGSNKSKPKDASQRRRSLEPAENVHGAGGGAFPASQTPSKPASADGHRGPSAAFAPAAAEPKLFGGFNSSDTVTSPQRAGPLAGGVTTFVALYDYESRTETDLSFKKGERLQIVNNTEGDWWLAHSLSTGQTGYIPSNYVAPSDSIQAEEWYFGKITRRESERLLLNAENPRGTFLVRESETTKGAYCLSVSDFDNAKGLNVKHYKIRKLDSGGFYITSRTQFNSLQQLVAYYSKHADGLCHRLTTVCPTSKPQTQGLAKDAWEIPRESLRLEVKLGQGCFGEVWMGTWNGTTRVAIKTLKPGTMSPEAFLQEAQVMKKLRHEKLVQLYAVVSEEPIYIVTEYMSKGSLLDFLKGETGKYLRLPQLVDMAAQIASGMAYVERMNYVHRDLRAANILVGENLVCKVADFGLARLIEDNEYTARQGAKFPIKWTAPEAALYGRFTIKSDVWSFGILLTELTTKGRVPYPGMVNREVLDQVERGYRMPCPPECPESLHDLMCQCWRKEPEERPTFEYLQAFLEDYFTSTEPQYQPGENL

SMILES	Activity (MAPKAPK2)	Activity (PRAK)	Activity (NEK2)	Activity (CHEK2)	Activity (C-TAK1)	Activity (CDK2/cyclin A)	further results
CN1CCN(c2ccc(Nc3ccnc4ccc(-c5cccc(C(=O)O)c5)cc34)cc2)CC1 [3-(4-(4-(4-methylpiperazin-1-yl)phenylamino)quinolin-6-yl)benzoic acid]	MAPKAPK2	PRAK	–	–	–	–	Activity (CK2): CK2
CNC1CCN(c2ccc(Nc3ccnc4ccc(-c5ccc(C#N)cc5)cc34)cc2)C1 (centres unmarked) [4-(4-(4-(3-(methylamino)pyrrolidin-1-yl)phenylamino)quinolin-6-yl)benzonitrile]	–	PRAK	–	–	–	–	Activity (KIT): KIT; Activity (CDK1/cyclin B): CDK1/cyclin B
CN1CCN(c2ccc(Nc3ccnc4ccc(-c5ccc(C(N)=O)cc5)cc34)cc2)CC1 [4-(4-(4-(4-methylpiperazin-1-yl)phenylamino)quinolin-6-yl)benzamide]	MAPKAPK2	PRAK	NEK2	–	–	–	Activity (ROCK2): ROCK2; Activity (DYRK2): DYRK2
CN1CCN(c2ccc(Nc3ccnc4ccc(-c5ccc(Cl)c(Cl)c5)cc34)cc2)CC1 [6-(3,4-dichlorophenyl)-N-(4-(4-methylpiperazin-1-yl)phenyl)quinolin-4-amine]	MAPKAPK2	PRAK	NEK2	CHEK2	C-TAK1	CDK2/cyclin A	–
CN1CCN(c2ccc(Nc3ccnc4ccc(-c5cccc(OCc6ccccc6)c5)cc34)cc2)CC1 [6-(3-(benzyloxy)phenyl)-N-(4-(4-methylpiperazin-1-yl)phenyl)quinolin-4-amine]	MAPKAPK2	PRAK	–	CHEK2	C-TAK1	CDK2/cyclin A	–
CN1CCN(c2ccc(Nc3ccnc4ccc(-c5ccc(F)c(Cl)c5)cc34)cc2)CC1 [6-(3-chloro-4-fluorophenyl)-N-(4-(4-methylpiperazin-1-yl)phenyl)quinolin-4-amine]	MAPKAPK2	PRAK	NEK2	–	C-TAK1	–	Activity (MSK1): MSK1
CN1CCN(c2ccc(Nc3ccnc4ccc(-c5ccc(OCc6ccccc6)c(F)c5)cc34)cc2)CC1 [6-(4-(benzyloxy)-3-fluorophenyl)-N-(4-(4-methylpiperazin-1-yl)phenyl)quinolin-4-amine]	MAPKAPK2	–	–	–	C-TAK1	–	Activity (SYK): SYK; Activity (SRC): SRC
CN1CCN(c2ccc(Nc3ccnc4ccc(-c5ccoc5)cc34)cc2)CC1 [6-(furan-3-yl)-N-(4-(4-methylpiperazin-1-yl)phenyl)quinolin-4-amine]	MAPKAPK2	–	–	–	–	–	Activity (GSK3-α): GSK3-α; Activity (DYRK2): DYRK2; Activity (GSK-3-β): GSK-3-β
CN1CCN(c2ccc(Nc3ccnc4ccc(-c5ccccc5C(F)(F)F)cc34)cc2)CC1 [N-(4-(4-methylpiperazin-1-yl)phenyl)-6-(2-(trifluoromethyl)phenyl)quinolin-4-amine]	MAPKAPK2	PRAK	NEK2	–	–	–	Activity (CK2): CK2
CN1CCN(c2ccc(Nc3ccnc4ccc(-c5cccs5)cc34)cc2)CC1 [N-(4-(4-methylpiperazin-1-yl)phenyl)-6-(thiophen-2-yl)quinolin-4-amine]	MAPKAPK2	PRAK	–	CHEK2	–	CDK2/cyclin A	Activity (GSK3-α): GSK3-α
